Test [1] concerns the target Protein arginine deiminase 4 (PAD4) (Homo sapiens, UniProt Q9UM07). In words: PAD4 ammonia release assay. In kind it is biochemical. The following applies: for IC50: PAD4 ammonia release assay, BAEE substrate, 60 min at RT, read-out: Average IC50 Abs; for relative potency of separated isomers in the PAD4 biochemical assay: SFC-separated stereoisomer pairs. Put shortly: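 Ammonia release from BAEE substrate (2× mix 600 μM) was measured after 60 min at RT, following 15 min enzyme–compound preincubation (PAD4 2× 20 nM; pH 8.0 HEPES, 2 mM CaCl2, TCEP; 1.25% DMSO). Detection used OPA/DTT/EDTA for 120 min. % inhibition was taken versus reference-compound and DMSO controls; IC50 by four-parameter logistic fit.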

Test [2] concerns Citrullinated Histone H3 in dHL-60 cells (differentiated HL-60). In words: dHL-60 Cit-H3 ELISA assay. The format is cell-based, human. Particulars: read-out: Average IC50 Abs. Put shortly: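 HL-60 cells differentiated 72 h with DMF, plated at 1×10^5/well, pretreated 30 min with compound (8-point 3-fold series, 0.2% DMSO), then stimulated 3 h at 37 °C with 25 μM A23187 plus S7 nuclease. Supernatant citrullinated H3 quantified by HRP ELISA at 450 nm; IC50 by four-parameter fit.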
(ELISA stands for enzyme-linked immunosorbent assay.)

Setting [3] is: stimulation with 25 μM A23187 for 3 h.
Where [4] appears, read: Homo sapiens, HL-60, 3 h, stimulation with 25 μM A23187 for 3 h.

Where two headings read alike, the source gives them in different places. Where only a bound is given, the exact number is not on record here.

Protein arginine deiminase 4 (PAD4), sequence (Q9UM07 whole entry): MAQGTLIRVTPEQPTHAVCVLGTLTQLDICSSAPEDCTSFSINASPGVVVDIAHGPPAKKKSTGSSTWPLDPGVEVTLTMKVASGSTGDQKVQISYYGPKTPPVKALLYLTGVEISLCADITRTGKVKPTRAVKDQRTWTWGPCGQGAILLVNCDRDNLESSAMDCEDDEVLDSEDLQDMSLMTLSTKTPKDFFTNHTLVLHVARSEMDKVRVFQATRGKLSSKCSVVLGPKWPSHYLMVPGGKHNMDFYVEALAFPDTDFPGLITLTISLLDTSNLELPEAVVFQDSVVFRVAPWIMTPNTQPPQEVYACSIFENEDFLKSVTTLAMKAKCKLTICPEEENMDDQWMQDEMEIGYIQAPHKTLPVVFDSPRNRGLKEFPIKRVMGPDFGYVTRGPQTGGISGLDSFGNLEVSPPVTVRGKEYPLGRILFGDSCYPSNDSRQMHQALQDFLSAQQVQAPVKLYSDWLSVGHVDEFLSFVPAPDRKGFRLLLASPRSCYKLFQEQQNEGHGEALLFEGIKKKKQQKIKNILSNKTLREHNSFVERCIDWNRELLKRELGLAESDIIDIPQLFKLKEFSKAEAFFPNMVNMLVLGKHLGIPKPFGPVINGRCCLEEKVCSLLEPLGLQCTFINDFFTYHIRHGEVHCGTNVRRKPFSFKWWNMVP

On to `CCC1CN(CCCO)c2cccc3cc(-c4nc5cc(C(=O)N6C[C@H]7CC[C@@H]6[C@@H]7N)cc(OC)c5n4C)n1c23` (single isomer, unassigned) [Example 87], for which, in test [1], the half-inhibitory concentration (IC50) (commonly the concentration that inhibits the measured activity by half) was 0.1 to 0.5 µM and the “relative potency of separated isomers in the PAD4 biochemical assay” value is on record as “more potent than Example 86”. For the same molecule, the IC50 in test [2] (setting [3]) was no more than 0.1 µM.
With `CCC1CN(CCCO)c2cccc3cc(-c4nc5cc(C(=O)N6C[C@H]7CC[C@@H]6[C@@H]7N)cc(OC)c5n4C)n1c23` (single isomer, unassigned) [Example 86], the results for the concentration for half-maximal inhibition (IC50) in test [1] and in test [2] (setting [3]) were greater than 5 µM and 0.5 to 5 µM, respectively.
As for `CCC1CN(CCCO)c2cccc3cc(-c4nc5cc(C(=O)N6C[C@H](N)C[C@@H](F)C6)cc(F)c5n4C)n1c23` (stereo partly drawn) [Example 75, ((3R,5R)-3-amino-5-fluoropiperidin-1-yl)(2-(3-ethyl-1-(3-hydroxypropyl)-2,3-dihydro-1H-pyrrolo[1,2,3-de]quinoxalin-5-yl)-7-fluoro-1-methyl-1H-benzo[d]imidazol-5-yl)methanone], the IC50 in test [1] and in test [2] (setting [4]) was 0.1 to 0.5 µM throughout.
For `C#CCn1c(-c2cc3cccc4c3n2C(CC)CN4CCCO)nc2cc(C(=O)N3C[C@H](N)C[C@@H](F)C3)cc(OC)c21` (stereo partly drawn) [Example 95, ((3R,5R)-3-amino-5-fluoropiperidin-1-yl)(2-(3-ethyl-1-(3-hydroxypropyl)-2,3-dihydro-1H-pyrrolo[1,2,3-de]quinoxalin-5-yl)-7-methoxy-1-(prop-2-yn-1-yl)-1H-benzo[d]imidazol-5-yl)methanone], the half-inhibitory concentration (IC50) in test [1] and in test [2] (setting [4]) was 0.1 to 0.5 µM each time.
For `CCC1CN(CCCO)c2cccc3cc(-c4nc5cc(C(=O)N6C[C@H]7CC[C@@H]6[C@@H]7N)cc(F)c5n4CC)n1c23` (stereo partly drawn) [Example 96, ((1R,4R,7R)-7-amino-2-azabicyclo[2.2.1]heptan-2-yl)(1-ethyl-2-(3-ethyl-1-(3-hydroxypropyl)-2,3-dihydro-1H-pyrrolo[1,2,3-de]quinoxalin-5-yl)-7-fluoro-1H-benzo[d]imidazol-5-yl)methanone], the 50% inhibitory concentration (IC50) in test [1] was 0.1 to 0.5 µM; in test [2] (Homo sapiens, HL-60, stimulation with 25 μM A23187 for 3 h) it was no more than 0.1 µM.
As for `CCC1CN(CCCO)c2cccc3cc(-c4nc5cc(C(=O)N6C[C@H](N)C[C@@H](F)C6)cc(OC)c5n4C)n1c23` (single isomer, unassigned) [Example 82], in test [1], the half-maximal inhibitory concentration (IC50) is no more than 0.1 µM and the “relative potency of separated isomers in the PAD4 biochemical assay” value was “more potent than Example 81”. Further, the IC50 in test [2] (setting [3]) was no more than 0.1 µM.

These data come from patent US20250136607A1 (REGOR PHARMACEUTICALS, INC., priority 2021, published 2025).
